Series [1] deals with T1, PDI (Homo sapiens, UniProt P07237).
T1 construct: FLAG; made in house; host or cells: Escherichia coli Origami B (DE3)
The series is described as follows: Jump dilution reversibility, di-eosin-GSSG assay. In kind it is biochemical. The following applies: 50 μM, 30 min, then 100-fold dilution. The protocol:
FIGS. 6A and 6B are plots showing % PDI activity. […] To test reversibility, the samples containing 50 μM compounds were then diluted 1:100. PDI activity was evaluated using a di-eosin-GSSG reductase assay. Data represented as mean SEM.
After 30 minutes of equilibration, the PDI-inhibitor mixture was diluted 100-fold with thiol isomerase assay buffer where the final concentration of enzyme is 0.2 μM and compounds at 500 nM or 50 μM. Di-eosin-GSSG was added to a final concentration of 300 nM and the assay was immediately recorded for 1 h.

For series [2], the target named is T1, PDI. The series is described as follows: SDS-PAGE molecular weight shift (alkylation of PDI free thiols). Type of series: biochemical. An excerpt:
FIG. 5 is an image of gel showing detection of PDI free thiol by the labeling of acetamido maleimidylstilbene disulfonic acid (AMS), which shifts the protein to a higher apparent molecular weight.
4-acetomido-4′-maleimidylstilbene-2,2′ disulfonic acid (AMS), which shifts the mass of the protein by 500 Da for every cysteine alkylated, was used as a positive control. […] N-ethylmaleimide (NEM) was used for a control experiment because covalent alkylation of the free thiols will expectedly prevent PDI activity (FIG. 6A).

The test system of series [3] is thrombus formation following laser injury of cremaster arterioles. Put plainly: Laser-injury thrombosis model. Type of series: in vivo, mice. The protocol:
Laser-injury thrombosis model. Thrombus formation in response to laser injury was measured as described previously. See Grover S P, et al. J. Thromb. Haemost. 18:3078-85, 2020; Koseoglu S, et al. Arterioscler. Thromb. Vasc. Biol. 33:481-8, 2013; and Matsuura S, et al. Arterioscler. Thromb. Vasc. Biol. 40:e262-e72, 2020. Briefly, cremaster muscle arterioles were injured using a MicroPoint Laser System (Andor, Belfast, UK). Platelet and fibrin accumulation were measured by infusion of Dylight 649-labeled anti-platelet (CD42b; 0.1 μg/g body weight; Emfret Analytics) and DyLight 488-labeled anti-fibrin (clone 59D8; 0.3 μg/g) antibodies through a jugular vein catheter. Data were acquired before and after laser injury using the brightfield, 488/520 nm, and 640/670 nm channels. Images were captured for 250 seconds at 2 frames/s using a CCD camera (ORCA Flash 4.0, Hamamatsu Photonics, Japan) on an AX-70 fluorescence microscope (Olympus, Japan). Data were analyzed using Slidebook 6.0 (Intelligent Imaging Innovations). Data from 16 to 30 thrombi were used to determine the median value of the integrated fluorescence intensity to account for variability in thrombus formation under any given experimental condition. AUC was calculated for individual thrombi and normalized to injury lengths to evaluate statistical significance. Injury lengths were determined as previously described in Grover S P, et al. J. Thromb. Haemost. 18:3078-85, 2020.
The differences in platelet accumulation and fibrin formation were not secondary to differences in the extent of laser injury since injury size between control and PGHG-treated mice was indistinguishable (FIG. 10E).

For series [4], the target named is T1, PDI. Put plainly: Di-eosin-GSSG disulfide reductase assay, PDI. In kind it is biochemical.
Protocol: Di-eosin-GSSG disulfide reductase assay. The probe di-eosin glutathione disulfide, di-eosin-GSSG, was prepared by incubating 100 μM of GSSG with 1 mM of eosin isothiocyanate in 100 mM potassium phosphate containing 2 mM EDTA (pH 7.4), at 25° C. overnight in the dark. The mixture was passed down a PD-10 column and different fractions were collected. A fold change of fluorescence (Ex: 520 nm, Em: 550 nm) was calculated using samples subjected to either vehicle or 20 mM of DTT. Any fraction with a fold change >5 was kept. Using a stock of 10 mM eosin isothiocyanate, a standard curve was generated and concentration of samples were determined accordingly. Di-eosin-GSSG cleavage of purified thiol isomerases and PDI domains was monitored in a 96-well fluorescence plate format. PDI, CGXC-PDI variants, ERp5, ERp57, ERp46 and PDI domains were assayed at 50 nM in the presence or absence of the indicated small molecules. The assay included a thiol isomerase assay buffer (39 mM KH2PO4, 61 mM K2HPO4, 2 mM EDTA, 5 M DTT, pH 7.4) and 150 nM of the di-eosin-GSSG probe. The increase in fluorescence was determined for 60 min by excitation at 520 nm and emission at 550 nm in a Synergy Biotek 4. The reduction of 150 nM di-eosin-GSSG by 5 μM DTT in the presence or absence of mentioned small molecule or proteins served as a negative control.
In series [5] the test system is bleeding following tail clip. Put plainly: Tail clip assay of hemostasis. The following applies: 25 μg/g PGHG, intraperitoneal injection.
Another series deals with T2, ERp72 (Homo sapiens, UniProt P13667).
T2 construct: recombinant His-tagged full-length ERp5, ERp72; His-tag; made in house; host or cells: Escherichia coli Origami B (DE3)
T2 sequence (P13667 21-645): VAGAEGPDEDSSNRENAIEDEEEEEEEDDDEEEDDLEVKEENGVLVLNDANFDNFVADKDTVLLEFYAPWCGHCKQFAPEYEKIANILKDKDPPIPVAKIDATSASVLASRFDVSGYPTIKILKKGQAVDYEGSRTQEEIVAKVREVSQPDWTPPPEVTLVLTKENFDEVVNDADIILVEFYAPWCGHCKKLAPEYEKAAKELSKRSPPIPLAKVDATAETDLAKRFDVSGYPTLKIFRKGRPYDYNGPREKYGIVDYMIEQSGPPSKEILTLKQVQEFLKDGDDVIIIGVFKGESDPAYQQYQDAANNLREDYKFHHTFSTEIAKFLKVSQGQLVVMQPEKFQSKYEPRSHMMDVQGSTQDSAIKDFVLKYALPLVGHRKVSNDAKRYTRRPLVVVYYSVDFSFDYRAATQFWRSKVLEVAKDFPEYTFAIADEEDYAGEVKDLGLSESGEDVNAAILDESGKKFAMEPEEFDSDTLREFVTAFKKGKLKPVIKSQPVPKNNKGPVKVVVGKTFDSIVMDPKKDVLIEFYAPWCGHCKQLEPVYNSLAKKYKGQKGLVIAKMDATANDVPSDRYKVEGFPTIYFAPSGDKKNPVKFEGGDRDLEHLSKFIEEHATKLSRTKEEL
Put plainly: Di-eosin-GSSG disulfide reductase assay, ERp72. In kind it is biochemical. An excerpt:
Recombinant protein purification. Recombinant ‘double-tagged’ (streptavidin-binding protein-tagged and FLAG-tagged) full-length PDI, ERp57, recombinant His-tagged full-length ERp5, ERp72, PDI domain fragments, and PDI mutant were cloned into a pET-15b vector at the NdeI and BamHI sites and transformed into Escherichia coli Origami B (DE3) cells (EMD Chemicals). The recombinant proteins were expressed and isolated by affinity chromatography with complete His-Tag purification resin (Roche Applied Science) or Pierce High-Capacity Streptavidin Agarose beads and purified on a Superdex 200 (GE Healthcare).
Di-eosin-GSSG disulfide reductase assay. […] Any fraction with a fold change >5 was kept.

Where [6] appears, read: 25 μg/g PGHG, intraperitoneal injection.
Where [7] appears, read: PGHG 25 mg/kg (Example 1, FIG. 1).
Setting [8] is: intravenous infusion, 25 μg/g PGHG.

“Also recorded” adds a separate entry of the source.

T1 sequence (P07237 18-508): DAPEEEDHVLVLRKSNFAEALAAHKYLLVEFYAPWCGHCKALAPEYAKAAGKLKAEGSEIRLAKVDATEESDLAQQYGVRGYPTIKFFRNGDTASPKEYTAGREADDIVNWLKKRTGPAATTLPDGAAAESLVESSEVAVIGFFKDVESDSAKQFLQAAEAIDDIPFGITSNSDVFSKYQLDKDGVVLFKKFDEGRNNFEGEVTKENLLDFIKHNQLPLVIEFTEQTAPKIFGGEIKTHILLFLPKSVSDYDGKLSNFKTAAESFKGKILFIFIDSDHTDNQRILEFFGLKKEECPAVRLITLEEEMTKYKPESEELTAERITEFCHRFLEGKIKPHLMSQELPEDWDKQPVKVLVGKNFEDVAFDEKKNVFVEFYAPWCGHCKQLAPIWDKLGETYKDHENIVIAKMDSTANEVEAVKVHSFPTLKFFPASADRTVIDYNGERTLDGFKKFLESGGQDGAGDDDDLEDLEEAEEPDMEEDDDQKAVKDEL

For the molecule `O=C(O[C@@H]1[C@@H](O)[C@H](Oc2cc(O)c3c(c2)O[C@H](c2ccccc2)CC3=O)O[C@@H]2COC(=O)c3cc(O)c(O)c(O)c3-c3c(cc(O)c(O)c3O)C(=O)O[C@@H]12)c1cc(O)c(O)c(O)c1` [PGHG, pinocembrin 7-O-(3″-galloyl-4″,6″-(S)-hexahydroxydiphenoyl)-beta-D-glucose], at PDI [1], the “reversibility of PDI inhibition” value is reported as “inhibitory activity was lost following a 100-fold dilution”. In addition, the “shift in molecular weight of PDI in SDS polyacrylamide gel” value at PDI [2] is “did not induce a shift in molecular weight”. In addition, in series [3] (setting [6]), the mean fibrin fluorescence is listed as 33.44±7.53 % of control and the mean platelet accumulation is reported as 29.56±9.08 % of control. In addition, in series [3] (setting [7]), the fibrin formation is reported as 21±3 % of controls and the platelet accumulation is 18±6 % of control levels. In series [3] (setting [8]), the “fibrin formation, fluorescence compared to controls” value was found to be 21±3.7% and the “platelet accumulation, fluorescence compared to controls” value was 18±6.2%. For the same molecule, the “inhibition of PDI (in words)” value against PDI [4] is given as “low micromolar range; also recorded: inhibit PDI”. Moreover, the IC50 on PDI [4] (read-out: PDI reductase activity IC50) is 1.5 ± 0.6 µM. Moreover, in series [5], the “time to cessation of bleeding” value was “did not prolong the time to cessation of bleeding; also recorded: did not prolong the time required for bleeding to subside” and the total blood loss result is “nor the total amount of blood loss; also recorded: nor did it significantly affect total blood loss”. The molecule further came in with a half-maximal inhibitory concentration (IC50) against ERp72 of 7.8 µM.
